Experimental data reported in ChEMBL document CHEMBL5608244, “Preclinical Evaluation of Dihydropyrazole-Cored Positron Emission Tomography (PET) Ligands for Imaging of Receptor-Interacting Serine/Threonine Protein Kinase 1 (RIPK1) in the Brain” (J Med Chem, 2024).

Assays:
[1] = Biodistribution in ICR mouse spleen at 0.74 MBq, iv measured after 60 mins by automatic gamma counter analysis; format: ADME, organism-based; settings: in vivo, 1 h
[2] = Biodistribution in ICR mouse brain at 0.74 MBq, iv measured after 30 mins by automatic gamma counter analysis; format: ADME, organism-based; settings: in vivo, 0.5 h
[3] = Biodistribution in ICR mouse kidneys at 0.74 MBq, iv measured after 2 mins by automatic gamma counter analysis; format: ADME, organism-based, Kidney; settings: in vivo
[4] = Biodistribution in ICR mouse assessed as drug accumulation in lungs at 0.74 MBq, iv pretreated with GSK'547 followed by compound administration measured after 10 mins by automatic gamma counter analysis; format: ADME, organism-based; settings: in vivo
[5] = Biodistribution in ICR mouse stomach at 0.74 MBq, iv measured after 10 mins by automatic gamma counter analysis; format: ADME, organism-based; settings: in vivo
[6] = Retention time of the compound by HPLC method; format: physicochemical
[7] = Drug uptake in Sprague-Dawley rat brain assessed as reduction in radioactivity at 10 to 17.6 MBq, iv pretreated with GSK'547 followed by compound administration measured upto 30 mins by PET analysis; format: ADME, organism-based; set-up: scale not given: the % may be the effect or the level left; settings: in vivo, 0.5 h, dose 10-17.6 MBq
[8] = Biodistribution in ICR mouse blood at 0.74 MBq, iv measured after 30 mins by automatic gamma counter analysis; format: ADME, organism-based; settings: in vivo, 0.5 h
[9] = Drug metabolism in mouse liver assessed as parent compound remaining at 13.5 MBq, iv measured after 30 mins by HPLC analysis; format: ADME, organism-based; settings: read-out: Activity
[10] = Lipophilicity, logD of compound at pH 7.4 by shake flask method; format: physicochemical; settings: buffer
[11] = Biodistribution in ICR mouse lung at 0.74 MBq, iv measured after 10 mins by automatic gamma counter analysis; format: ADME, organism-based; settings: in vivo
[12] = Biodistribution in ICR mouse heart at 0.74 MBq, iv measured after 10 mins by automatic gamma counter analysis; format: ADME, organism-based; settings: in vivo
[13] = Biodistribution in ICR mouse small intestine at 0.74 MBq, iv measured after 10 mins by automatic gamma counter analysis; format: ADME, organism-based; settings: in vivo
[14] = Drug uptake in medulla of ICR mouse brain at 0.5 to 10 uM incubated for 30 mins by Phosphor Imager analysis; format: ADME, tissue-based, Medulla of organ; settings: 0.5 h, dose 0.5-10 µM
[15] = Biodistribution in ICR mouse liver at 0.74 MBq, iv measured after 60 mins by automatic gamma counter analysis; format: ADME, organism-based; settings: in vivo, 1 h
[16] = Biodistribution in ICR mouse pancreas at 0.74 MBq, iv measured after 30 mins by automatic gamma counter analysis; format: ADME, organism-based; settings: in vivo, 0.5 h
[17] = Biodistribution in ICR mouse brain at 0.74 MBq, iv measured after 60 mins by automatic gamma counter analysis; format: ADME, organism-based; settings: in vivo, 1 h
[18] = Biodistribution in ICR mouse stomach at 0.74 MBq, iv measured after 60 mins by automatic gamma counter analysis; format: ADME, organism-based; settings: in vivo, 1 h
[19] = Drug uptake in cerebellum of ICR mouse brain at 0.5 to 10 uM incubated for 30 mins by Phosphor Imager analysis; format: ADME, tissue-based; settings: 0.5 h, dose 0.5-10 µM
[20] = Drug uptake in brain of TNF-alpha-induced SIRS Sprague-Dawley rat model at 9.9 to 14.8 MBq, iv measured for 5 mins by PET analysis; format: ADME, organism-based; settings: in vivo, dose 9.9-14.8 MBq
[21] = Biodistribution in ICR mouse heart at 0.74 MBq, iv measured after 30 mins by automatic gamma counter analysis; format: ADME, organism-based; settings: in vivo, 0.5 h
[22] = Drug uptake in thalamus of ICR mouse brain assessed as reduction in radioactivity at 0.5 to 10 uM incubated for 30 mins in presence of 10 uM of 1-(5-(3-fluorophenyl)-4,5-dihydro-1H-pyrazol-1-yl)-2,2-dimethylpropan-1-one by Phosphor Imager analysis; format: ADME, tissue-based; set-up: scale not given: the % may be the effect or the level left; settings: 0.5 h, dose 0.5-10 µM
[23] = Biodistribution in ICR mouse pancreas at 0.74 MBq, iv measured after 10 mins by automatic gamma counter analysis; format: ADME, organism-based; settings: in vivo
[24] = Biodistribution in ICR mouse liver at 0.74 MBq, iv measured after 10 mins by automatic gamma counter analysis; format: ADME, organism-based; settings: in vivo
[25] = Biodistribution in ICR mouse bone at 0.74 MBq, iv measured after 30 mins by automatic gamma counter analysis; format: ADME, organism-based, Bone element; settings: in vivo, 0.5 h
[26] = Biodistribution in ICR mouse brain at 0.74 MBq, iv measured after 10 mins by automatic gamma counter analysis; format: ADME, organism-based; settings: in vivo
[27] = Drug uptake in thalamus of ICR mouse brain assessed as reduction in radioactivity incubated for 30 mins in presence of GSK'547 by Phosphor Imager analysis; format: ADME, tissue-based; settings: 0.5 h
[28] = Drug uptake in Sprague-Dawley rat brain assessed as reduction in radioactivity at 10 to 17.6 MBq, iv pretreated with 1-(5-(3-fluorophenyl)-4,5-dihydro-1H-pyrazol-1-yl)-2,2-dimethylpropan-1-one followed by compound administration measured upto 30 mins by PET analysis; format: ADME, organism-based; set-up: scale not given: the % may be the effect or the level left; settings: in vivo, 0.5 h, dose 10-17.6 MBq
[29] = Biodistribution in ICR mouse heart at 0.74 MBq, iv measured after 2 mins by automatic gamma counter analysis; format: ADME, organism-based; settings: in vivo
[30] = Biodistribution in ICR mouse stomach at 0.74 MBq, iv measured after 2 mins by automatic gamma counter analysis; format: ADME, organism-based; settings: in vivo
[31] = Biodistribution in ICR mouse lung at 0.74 MBq, iv measured after 30 mins by automatic gamma counter analysis; format: ADME, organism-based; settings: in vivo, 0.5 h
[32] = Drug metabolism in mouse plasma assessed as polar radiometabolites accumulation at 13.5 MBq, iv measured after 30 mins by HPLC analysis; format: ADME, organism-based; settings: 0.5 h
[33] = Biodistribution in ICR mouse small intestine at 0.74 MBq, iv measured after 2 mins by automatic gamma counter analysis; format: ADME, organism-based; settings: in vivo
[34] = Drug uptake in Sprague-Dawley rat bone at 10 to 17.6 MBq, iv treated upto 30 mins by PET analysis; format: ADME, organism-based, Bone element; settings: in vivo, 0.5 h, dose 10-17.6 MBq
[35] = Biodistribution in ICR mouse lung at 0.74 MBq, iv measured after 60 mins by automatic gamma counter analysis; format: ADME, organism-based; settings: in vivo, 1 h
[36] = Biodistribution in ICR mouse muscle at 0.74 MBq, iv measured after 2 mins by automatic gamma counter analysis; format: ADME, organism-based, Muscle tissue; settings: in vivo
[37] = Biodistribution in ICR mouse pancreas at 0.74 MBq, iv measured after 2 mins by automatic gamma counter analysis; format: ADME, organism-based; settings: in vivo
[38] = Biodistribution in ICR mouse pancreas at 0.74 MBq, iv measured after 60 mins by automatic gamma counter analysis; format: ADME, organism-based; settings: in vivo, 1 h
[39] = Biodistribution in ICR mouse assessed as decrease in drug accumulation in bone with marrow at 0.74 MBq, iv pretreated with 1-(5-(3-fluorophenyl)-4,5-dihydro-1H-pyrazol-1-yl)-2,2-dimethylpropan-1-one followed by compound administration measured after 10 mins by automatic gamma counter analysis; format: ADME, organism-based; set-up: scale not given: the % may be the effect or the level left; settings: in vivo
[40] = Stability in Balb/c mouse plasma measured for 60 to 150 mins by reversed-phase HPLC analysis; format: ADME; settings: time 60-150 min
[41] = Biodistribution in ICR mouse assessed as drug accumulation in liver at 0.74 MBq, iv pretreated with GSK'547 followed by compound administration measured after 10 mins by automatic gamma counter analysis; format: ADME, organism-based; settings: in vivo
[42] = Biodistribution in ICR mouse kidneys at 0.74 MBq, iv measured after 10 mins by automatic gamma counter analysis; format: ADME, organism-based, Kidney; settings: in vivo
[43] = Drug uptake in brain of Sprague-Dawley rat at 9.9 to 14.8 MBq, iv pretreated with 1-(5-(3-fluorophenyl)-4,5-dihydro-1H-pyrazol-1-yl)-2,2-dimethylpropan-1-one measured upto 20 mins by PET analysis; format: ADME, organism-based; settings: in vivo, dose 9.9-14.8 MBq

Drug uptake [1]: 0.41 % ID/g
Drug uptake [2]: 0.48 % ID/g
Drug uptake [3]: 10.39 % ID/g
Drug uptake [4]: 15.6%
Drug uptake [5]: 0.64 % ID/g
Retention_time [6]: 21.84 min
Activity [7]: 25.9%
Drug uptake [8]: 2.96 % ID/g
remaining at 0.5 h [9]: 1.5%
logD [10]: 2.25
Drug uptake [11]: 7.23 % ID/g
Drug uptake [12]: 3.27 % ID/g
Drug uptake [13]: 12.64 % ID/g
Drug uptake [14]: Active
Drug uptake [15]: 2.69 % ID/g
Drug uptake [16]: 1.51 % ID/g
Drug uptake [17]: 0.21 % ID/g
Drug uptake [18]: 0.18 % ID/g
Drug uptake [19]: Active
Drug uptake [20]: Active
Drug uptake [21]: 1.3 % ID/g
Activity [22]: ~ 26%
Drug uptake [23]: 3.07 % ID/g
Drug uptake [24]: 11.39 % ID/g
Drug uptake [25]: 8.26 % ID/g
Drug uptake [26]: 1.36 % ID/g
Activity [27]: Dose-Dependent Effect
Activity [28]: 21.7%
Drug uptake [29]: 6.8 % ID/g
Drug uptake [30]: 0.9 % ID/g
Drug uptake [31]: 2.58 % ID/g
Drug metabolism [32]: Metabolite_Detected
Drug uptake [33]: 5.07 % ID/g
Drug uptake [34]: Not Active
Drug uptake [35]: 1.03 % ID/g
Drug uptake [36]: 3.7 % ID/g
Drug uptake [37]: 6.65 % ID/g
Drug uptake [38]: 1.46 % ID/g
Activity [39]: 14.8%
Stability [40]: > 98%
Drug uptake [41]: 23.2%
Drug uptake [42]: 18.03 % ID/g
Drug uptake [43]: 9.8%
Structure (SMILES): CC(C)(C)C(=O)N1N=CCC1c1cccc([18F])c1 (stereo not drawn)
